Like-named read-outs stand apart in the source and are kept apart here. * marks the point of attachment. Palmitoyl = CCCCCCCCCCCCCCCC(=O)*

The assay concerns the target T1, human ferroportin (Homo sapiens, UniProt Q9NP59).
T1 sequence (Q9NP59 1-571): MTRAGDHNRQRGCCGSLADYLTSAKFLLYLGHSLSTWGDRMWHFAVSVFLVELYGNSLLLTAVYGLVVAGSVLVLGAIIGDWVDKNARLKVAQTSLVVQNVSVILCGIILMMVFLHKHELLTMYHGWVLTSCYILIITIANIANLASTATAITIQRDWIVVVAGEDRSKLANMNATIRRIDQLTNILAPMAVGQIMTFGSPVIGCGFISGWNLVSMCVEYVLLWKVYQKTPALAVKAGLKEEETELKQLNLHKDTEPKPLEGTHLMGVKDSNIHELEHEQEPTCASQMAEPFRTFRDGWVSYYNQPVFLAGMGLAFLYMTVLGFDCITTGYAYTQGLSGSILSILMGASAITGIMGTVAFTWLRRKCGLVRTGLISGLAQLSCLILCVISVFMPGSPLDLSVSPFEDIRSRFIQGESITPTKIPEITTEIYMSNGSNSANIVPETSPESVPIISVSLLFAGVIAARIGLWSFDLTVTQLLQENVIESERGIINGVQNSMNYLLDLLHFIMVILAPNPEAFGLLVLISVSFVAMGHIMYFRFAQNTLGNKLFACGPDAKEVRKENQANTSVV
Type of assay: cell-based. Particulars: for % Activity At 1 uM: at 1 uM peptide, monomers and disulphide-linked dimers. The text has this:
The cDNA encoding the human ferroportin (SLC40A1) was cloned from a cDNA clone from Origene (NM_014585). The DNA encoding the ferroportin was amplified by PCR using primers also encoding terminal restriction sites for subcloning, but without the termination codon. The ferroportin receptor was subcloned into a mammalian GFP expression vector containing a neomycin (G418) resistance marker in such that the reading frame of the ferroportin was fused in frame with the GFP protein. The fidelity of the DNA encoding the protein was confirmed by DNA sequencing. HEK293 cells were used for transfection of the ferroportin-GFP receptor expression plasmid. The cells were grown according to standard protocol in growth medium and transfected with the plasmids using Lipofectamine (manufacturer's protocol, Invitrogen). […] The cells were propagated and frozen in aliquots.
A retro inverse peptide is a peptide with a reversed sequence in all D amino acids. […] The EC50 of these reference compounds for ferroportin degradation was determined according to the activity assay described above.

The mark [1] stands for this setting: read-out: EC50 (nM) (n = 3), in vitro activity as in Example 2, peptide monomers and dimers dimerized through a single disulphide linkage, n = 3.
Where [2] appears, read: cysteine replacement scan of Mini-Hepcidin derivatives.
Setting [3] is: read-out: EC50 (n = 3), cells printed in μM, in vitro activity as in Example 2, peptide monomers and dimers dimerized through a single disulphide linkage, n = 3.
The mark [4] stands for this setting: Hepcidin analog peptides, read-out: Potency EC50.
[5] abbreviates: read-out: EC50 (n > 3), alanine scan of Compound 1.
[6] abbreviates: read-out: EC50 (nM) (n > 3), alanine scan of Compound 18.
[7] abbreviates: read-out: EC50 (nM) (n > 3), alanine scan of Compound 1.

Hy-LTHFPCIIF-NH2 [Compound 299]: the “% Activity At 1 uM” value was determined as 64%. Also, the EC50 under setting [1] was more than 300 nM.
Turning to H-DTHCPIAIF-NH2 [Compound 277], under “Hepcidin analog peptides”, the “Potency EC50 (nM)” value is “Inactive”. Besides, the “EC50 (nM) (n > 3)” value under setting [2] is on record as “Not active”.
Consider H-DTKFPCIIF-NH2 [Compound 302], for which the “% Activity At 1 uM” value came to 60%. The EC50 under setting [3] is more than 1000 nM.
Consider H-DTHICIAIF-NH2 [Compound 276], for which the “Potency EC50 (nM)” value (Hepcidin analog peptides) is “Inactive”. Moreover, the “EC50 (nM) (n > 3)” value under setting [2] is “Not active”.
Turning to “Isovaleric acid-DTHFPCIIF-NH2 [Compound 288]”, the “% Activity At 1 uM” value is given as 100%.
As to “Isovaleric acid-DTHFPSIIF-NH2 [Compound 290]”, the “Potency EC50 (nM)” value (Hepcidin analog peptides) was “Inactive”.
For the substance H-DTHFPIAIFICI-NH2 [Compound 272], under “Hepcidin analog peptides”, the “Potency EC50 (nM)” value was “Inactive”. Also, the “EC50 (nM) (n > 3)” value under setting [2] is recorded as “Not active”.
On to H-ATHFPCIIF-NH2 [Compound 284], for which the EC50 reads like this: under setting [4], more than 1000 nM; under setting [5], more than 1000 nM.
In the case of Hy-DTHFPCIIF-NH2 [Compound 1], the “% Activity At 1 uM” value is 92%.
For “H-DTHFPCIIFGPRSKGWVCK-NH2 (cysteine pairing not given here) [Compound 86]”, the 50% effective concentration (EC50) under setting [4] is more than 1000 nM.
H-DTHFPIAIFAAICI-NH2 [Compound 270]: the “Potency EC50 (nM)” value (Hepcidin analog peptides) is listed as “Inactive”. Further, under setting [2], the “EC50 (nM) (n > 3)” value is “Not active”.
“H-DTHFPICIFGPRAKGWVCM-NH2 (cysteine pairing not given here) [Compound 16]”: the EC50 under setting [4] was 88 nM and the EC50 under setting [6] was found to be 88 nM.
For the substance H-DTHFACIIF-NH2 [Compound 280], the EC50 under setting [4] is more than 1000 nM and the EC50 under setting [5] is more than 1000 nM.
“Isovaleric acid-DTHFPAIIF-NH2 [Compound 289]”: the “Potency EC50 (nM)” value (Hepcidin analog peptides) is on record as “Inactive”.
As to “H-DTHFPCISFGPRSKGWVCM-NH2 (cysteine pairing not given here) [Compound 135]”, under setting [4], the EC50 is 545 nM.
Turning to H-DTHFPCIIA-NH2 [Compound 278], the EC50 reads like this: under setting [4], more than 1000 nM; under setting [5], more than 1000 nM.
With “H-THFPCIIFGPRSKGWVCK-NH2 (cysteine pairing not given here) [Compound 97]”, the “Potency EC50 (nM)” value (Hepcidin analog peptides) is listed as “Inactive”.
As to “H-VDTHFPCIKFGPRSKGWVCK-NH2 (cysteine pairing not given here) [Compound 164]”, the EC50 under setting [4] turned out to be 146 nM.
As for “H-DTHFPICIFGPASKGWVCM-NH2 (cysteine pairing not given here) [Compound 34]”, the EC50 turned out to be 206 nM under setting [4] and 206 nM under setting [6].
Take H-DTHFPCIVF-NH2 [Compound 307]: the “% Activity At 1 uM” value amounted to 75%. Further, the EC50 under setting [1] was more than 300 nM.
In the case of H-DTHFPCIF-NH2 [Compound 293], the “% Activity At 1 uM” value came out at 52%.
As for “H-DTHFPCIIFGPRSRGVCK-NH2 (cysteine pairing not given here) [Compound 84]”, the EC50 under setting [4] is more than 1000 nM.
On to H-DTHAPCIIF-NH2 [Compound 282], for which the “Potency EC50 (nM)” value (Hepcidin analog peptides) is reported as “Inactive”. Moreover, the “EC50 (nM) (n > 3)” value (alanine scan of Compound 1) is recorded as “Not active”.
Consider “H-HFPCIIFGPRSKGWVCM-NH2 (cysteine pairing not given here) [Compound 133]”, for which the EC50 under setting [4] is more than 1000 nM.
The same measure, in the same setting: then “H-DTHFPCIIFGPRSRGWRCK-NH2 (cysteine pairing not given here) [Compound 80]”, with more than 1000 nM.
For the substance “Hy-DTHF-[Sarc]-CIIFGPRSKGWVCK-NH2 [Compound 127]”, the “Potency EC50 (nM)” value (Hepcidin analog peptides) is recorded as “Inactive”.
Turning to “H-DTHFPICIFGPRAKGWVCM-NH2 (cysteine pairing not given here) [Compound 28]”, the EC50 under setting [4] turned out to be 88 nM.
In the case of “H-DTHFPCIRFGPRSRGWRCK-NH2 (cysteine pairing not given here) [Compound 82]”, the EC50 under setting [4] is more than 1000 nM.
Turning to “H-ATHFPICIFGPRSKGWVCM-NH2 (cysteine pairing not given here) [Compound 33]”, the EC50 came to 184 nM under setting [4] and 184 nM under setting [6].
Turning to “Hy-DTHF-(D)--Ala-CIIF-NH2 [Compound 281]”, where the note is “Hepcidin analog peptides”, the “Potency EC50 (nM)” value is on record as “Inactive”. The “EC50 (nM) (n > 3)” value (alanine scan of Compound 1) is “Not active”.
On to H-DTHFPCIKFF-NH2 [Compound 297], for which the “% Activity At 1 uM” value came out at 64%. Also, the EC50 under setting [1] is more than 300 nM.
On to H-DAHFPCIIF-NH2 [Compound 52], for which the EC50 is, setting by setting: under setting [4], 388 nM; under setting [7], 388 nM.
H-DTHFPCIEK-NH2 [Compound 310]: the “% Activity At 1 uM” value came out at 0%. In addition, under setting [3], the EC50 is more than 1000 nM.
Regarding H-DTHFPIAIICI-NH2 [Compound 273], under “Hepcidin analog peptides”, the “Potency EC50 (nM)” value is given as “Inactive”. Moreover, under setting [2], the “EC50 (nM) (n > 3)” value is listed as “Not active”.
For the substance H-DTHFPCIIR-NH2 [Compound 305], the “% Activity At 1 uM” value is 62%. Moreover, the EC50 under setting [3] was more than 1000 nM.
With “H-DTHFPCISFGPRSKGWVCK-NH2 (cysteine pairing not given here) [Compound 101]”, under setting [4], the EC50 is more than 1000 nM.
On the same count and under the same terms, next, “H-THFPCIIFGPRSKGWVCM-NH2 (cysteine pairing not given here) [Compound 132]”: more than 1000 nM; H-DTHFPCIFF-NH2 [Compound 56]: 441 nM.
Consider H-DTHFPCIAF-NH2 [Compound 51], for which the EC50 runs as follows: under setting [4], 382 nM; under setting [7], 382 nM.
“H-DTHFRCIIFGPRSKGWVCK-NH2 (cysteine pairing not given here) [Compound 125]”: the “Potency EC50 (nM)” value (Hepcidin analog peptides) is reported as “Inactive”.
On to “H-DTHFPICAFGPRSKGWVCM-NH2 (cysteine pairing not given here) [Compound 68]”, for which the EC50 runs as follows: under setting [4], more than 10000 nM; (read-out: EC50 (n > 3), alanine scan of Compound 18) more than 10000 nM.
Turning to “H-DTHFPCIYFGPRSKGWVCK-NH2 (cysteine pairing not given here) [Compound 85]”, under setting [4], the EC50 is 705 nM.
Take “H-DTHFPCIIFGPRARGWVCK-NH2 (cysteine pairing not given here) [Compound 87]”: the EC50 under setting [4] is more than 1000 nM.
On to H-DTAFPCIIF-NH2 [Compound 283], for which the EC50 reads like this: under setting [4], 739 nM; under setting [7], 739 nM.
As to “Isovaleric acid-HFPCIIFGPRSKGWVCK-NH2 [Compound 100]”, the “Potency EC50 (nM)” value (Hepcidin analog peptides) is given as “Inactive”.
In the case of “H-DTAFPICIFGPRSKGWVCM-NH2 (cysteine pairing not given here) [Compound 60]”, the EC50 by setting is: under setting [4], 498 nM; under setting [6], 498 nM.
In the case of “H-DTHFAICIFGPRSKGWVCM-NH2 (cysteine pairing not given here) [Compound 26]”, the EC50 is, setting by setting: under setting [4], 147 nM; under setting [6], 147 nM.
As for “Palmitoyl-DTHFPCIKFGPRSKGWVCK-NH2 (cysteine pairing not given here) [Compound 216]”, the EC50 under setting [4] is more than 1000 nM.
For “Isovaleric acid-THFPCIIFGPRSKGWVCK-NH2 [Compound 98]”, the “Potency EC50 (nM)” value (Hepcidin analog peptides) is listed as “Inactive”.
H-DTHFPCAIF-NH2 [Compound 279]: the EC50 under setting [4] was more than 1000 nM and the EC50 under setting [5] is more than 1000 nM.
For the substance “H-EDTHFPCIIFGPRSKGWVCK-NH2 (cysteine pairing not given here) [Compound 103]”, the EC50 under setting [4] is more than 1000 nM.
On to “H-DTHFPCRRFGPRSKGWVC-NH2 (cysteine pairing not given here) [Compound 70]”, for which the “Potency EC50 (nM)” value (Hepcidin analog peptides) is “Inactive”.
On to “Hy-DTHF-[β-Ala]-CIIFGPRSKGWVCK-NH2 [Compound 129]”, for which the “Potency EC50 (nM)” value (Hepcidin analog peptides) was “Inactive”.
With “H-DTHAPICIFGPRSKGWVCM-NH2 (cysteine pairing not given here) [Compound 38]”, the EC50 reads like this: under setting [4], 254 nM; under setting [6], 254 nM.
In the case of “Isovaleric acid-DTHFPCIKF-NH2 [Compound 291]”, the “% Activity At 1 uM” value is listed as 100%.
Turning to “H-DTHFPCIRFGPRSRGWVCK-NH2 (cysteine pairing not given here) [Compound 81]”, the EC50 under setting [4] is more than 1000 nM.
For H-DTHFPIAIFAICI-NH2 [Compound 271], under “Hepcidin analog peptides”, the “Potency EC50 (nM)” value is “Inactive”. The “EC50 (nM) (n > 3)” value under setting [2] is given as “Not active”.
In the case of “H-DTHFPICIFAPRSKGWVCM-NH2 (cysteine pairing not given here) [Compound 22]”, the EC50 turned out to be 9430 nM under setting [4] and 9430 nM under setting [6].

One may read the EC50 as the midpoint of the concentration-response curve.

Source of the values: US9822157B2 (priority 2013, dated 2017).
